These results are taken from ChEMBL document CHEMBL1909046, “DrugMatrix in vitro pharmacology data”.

The target in one assay is T1, Alpha-2C adrenergic receptor (Homo sapiens, UniProt P18825).
T1 sequence (P18825 whole entry): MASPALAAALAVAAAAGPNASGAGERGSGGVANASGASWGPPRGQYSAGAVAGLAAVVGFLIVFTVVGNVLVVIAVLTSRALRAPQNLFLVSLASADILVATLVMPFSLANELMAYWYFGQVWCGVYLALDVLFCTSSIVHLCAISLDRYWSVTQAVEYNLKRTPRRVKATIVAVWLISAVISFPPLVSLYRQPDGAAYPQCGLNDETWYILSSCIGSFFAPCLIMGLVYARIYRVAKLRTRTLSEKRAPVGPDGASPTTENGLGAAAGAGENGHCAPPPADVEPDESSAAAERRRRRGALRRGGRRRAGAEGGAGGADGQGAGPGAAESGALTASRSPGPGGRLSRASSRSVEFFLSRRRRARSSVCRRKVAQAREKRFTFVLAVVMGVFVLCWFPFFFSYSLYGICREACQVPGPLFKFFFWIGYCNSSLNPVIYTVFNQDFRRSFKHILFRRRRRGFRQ
The experiment in a line: DRUGMATRIX: Adrenergic Alpha-2C radioligand binding (ligand: [3H] MK-912). The assay is classed as cell membranes, Sf9, Membrane. As to conditions: sf9.
Regarding `Nn1nnc2ccccc21`, the IC50 entry was “Not Active”.

As to `Clc1cc2c(cc1Cl)Oc1cc(Cl)c(Cl)cc1O2` [2,3,7,8-TETRACHLORODIBENZO-P-DIOXIN], the IC50 result was “Not Active”.

On to `CCCCCC[C@H]1C(=O)O[C@H](C)[C@H](NC(=O)c2cccc(NC=O)c2O)C(=O)O[C@@H](C)[C@@H]1OC(=O)CC(C)C` [ANTIMYCIN A], for which the IC50 entry is listed as “Not Active”.

For `C[C@@H]1CC[C@H]2[C@@H](C)C(=O)O[C@@H]3O[C@@]4(C)CC[C@@H]1[C@]32OO4` [ARTEMISININ], the IC50 result is “Not Active”.

As for `CC(C)(C)c1ccc(S(=O)(=O)/C=C/C#N)cc1` [BAY-11-7085], the IC50 result is recorded as “Not Active”.

As for `CCc1oc2ccccc2c1C(=O)c1cc(Br)c(O)c(Br)c1` [BENZBROMARONE], the IC50 result is reported as “Not Active”.

Consider `O=c1cc(-c2ccccc2)oc2ccc3ccccc3c12` [BETA-NAPHTHOFLAVONE], for which the IC50 result is given as “Not Active”.

Take `O=C(/C=C/c1ccc(O)c(O)c1)OCCc1ccccc1` [CAFFEIC ACID PHENETHYL ESTER]: the IC50 result is “Not Active”.

Turning to `CC(C)(Oc1ccc(C2CC2(Cl)Cl)cc1)C(=O)O` (stereo not given) [CIPROFIBRATE], the IC50 entry is on record as “Not Active”.

For the compound `OCCO` [ETHYLENE GLYCOL], the IC50 result is recorded as “Not Active”.

For `CC(=O)OCC(CCn1cnc2cnc(N)nc21)COC(C)=O` [FAMCICLOVIR], the IC50 entry was “Not Active”.

As for `O=C(O)Cc1ccc(-c2ccccc2)cc1` [FELBINAC], the IC50 result was “Not Active”.

For `Cc1cn[nH]c1` [FOMEPIZOLE], the IC50 entry is on record as “Not Active”.

In the case of `C[C@H]([C@](O)(Cn1cncn1)c1ccc(F)cc1F)S(C)(=O)=O` [GENACONAZOLE], the IC50 entry is listed as “Not Active”.

Take `COc1ccccc1OCC(O)CO` (stereo not given) [GUAIFENESIN]: the IC50 entry is listed as “Not Active”.

The target of another assay is T2, Androgen receptor (Rattus norvegicus, UniProt P15207). Also: in other assays of this panel Not Active means under 50% inhibition at 10 µM.
T2 sequence (P15207 whole entry): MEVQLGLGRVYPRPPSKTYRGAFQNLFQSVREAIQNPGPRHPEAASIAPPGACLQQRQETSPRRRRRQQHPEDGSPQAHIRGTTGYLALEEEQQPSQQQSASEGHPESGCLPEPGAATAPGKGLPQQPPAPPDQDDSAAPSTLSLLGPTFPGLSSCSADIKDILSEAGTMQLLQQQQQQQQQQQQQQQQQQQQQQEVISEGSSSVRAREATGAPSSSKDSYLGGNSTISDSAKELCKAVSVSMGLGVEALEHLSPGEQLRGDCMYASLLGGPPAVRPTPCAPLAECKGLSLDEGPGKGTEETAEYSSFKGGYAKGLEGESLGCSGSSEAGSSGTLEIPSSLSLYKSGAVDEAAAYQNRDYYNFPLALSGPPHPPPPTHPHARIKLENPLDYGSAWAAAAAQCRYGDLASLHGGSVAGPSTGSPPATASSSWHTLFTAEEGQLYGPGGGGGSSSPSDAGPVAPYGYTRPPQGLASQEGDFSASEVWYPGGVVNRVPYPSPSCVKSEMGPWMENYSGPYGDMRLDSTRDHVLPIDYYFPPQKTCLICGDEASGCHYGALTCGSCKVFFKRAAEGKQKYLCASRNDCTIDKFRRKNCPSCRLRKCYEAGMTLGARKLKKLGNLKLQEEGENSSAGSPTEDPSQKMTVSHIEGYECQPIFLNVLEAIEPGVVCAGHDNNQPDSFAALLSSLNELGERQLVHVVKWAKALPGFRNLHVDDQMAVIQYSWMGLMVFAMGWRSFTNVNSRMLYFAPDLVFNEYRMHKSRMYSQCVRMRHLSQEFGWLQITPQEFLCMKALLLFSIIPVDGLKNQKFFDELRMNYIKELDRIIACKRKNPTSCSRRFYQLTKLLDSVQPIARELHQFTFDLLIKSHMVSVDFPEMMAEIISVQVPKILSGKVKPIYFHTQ
Settings: not given
With `Nn1nnc2ccccc21`, the IC50 entry is on record as “Not Active”.

For the compound `Clc1cc2c(cc1Cl)Oc1cc(Cl)c(Cl)cc1O2` [2,3,7,8-TETRACHLORODIBENZO-P-DIOXIN], the IC50 result was “Not Active”.

For `CCCCCC[C@H]1C(=O)O[C@H](C)[C@H](NC(=O)c2cccc(NC=O)c2O)C(=O)O[C@@H](C)[C@@H]1OC(=O)CC(C)C` [ANTIMYCIN A], the IC50 entry is on record as “Not Active”.

As for `C[C@@H]1CC[C@H]2[C@@H](C)C(=O)O[C@@H]3O[C@@]4(C)CC[C@@H]1[C@]32OO4` [ARTEMISININ], the IC50 result is reported as “Not Active”.

For `CC(C)(C)c1ccc(S(=O)(=O)/C=C/C#N)cc1` [BAY-11-7085], the IC50 result was “Not Active”.

With `CCc1oc2ccccc2c1C(=O)c1cc(Br)c(O)c(Br)c1` [BENZBROMARONE], the IC50 entry is “Not Active”.

In the case of `O=c1cc(-c2ccccc2)oc2ccc3ccccc3c12` [BETA-NAPHTHOFLAVONE], the IC50 entry is “Not Active”.

With `O=C(/C=C/c1ccc(O)c(O)c1)OCCc1ccccc1` [CAFFEIC ACID PHENETHYL ESTER], the IC50 result is “Not Active”.

Consider `CC(C)(Oc1ccc(C2CC2(Cl)Cl)cc1)C(=O)O` (stereo not given) [CIPROFIBRATE], for which the IC50 result is “Not Active”.

Turning to `OCCO` [ETHYLENE GLYCOL], the IC50 result is recorded as “Not Active”.

With `CC(=O)OCC(CCn1cnc2cnc(N)nc21)COC(C)=O` [FAMCICLOVIR], the IC50 result was “Not Active”.

Consider `O=C(O)Cc1ccc(-c2ccccc2)cc1` [FELBINAC], for which the IC50 result was “Not Active”.

As for `Cc1cn[nH]c1` [FOMEPIZOLE], the IC50 result is on record as “Not Active”.

Turning to `C[C@H]([C@](O)(Cn1cncn1)c1ccc(F)cc1F)S(C)(=O)=O` [GENACONAZOLE], the IC50 result is on record as “Not Active”.

`COc1ccccc1OCC(O)CO` (stereo not given) [GUAIFENESIN]: the IC50 entry is reported as “Not Active”.

The next assay concerns the target T3, 5-hydroxytryptamine receptor 2C (Homo sapiens, UniProt P28335).
T3 sequence (P28335 whole entry): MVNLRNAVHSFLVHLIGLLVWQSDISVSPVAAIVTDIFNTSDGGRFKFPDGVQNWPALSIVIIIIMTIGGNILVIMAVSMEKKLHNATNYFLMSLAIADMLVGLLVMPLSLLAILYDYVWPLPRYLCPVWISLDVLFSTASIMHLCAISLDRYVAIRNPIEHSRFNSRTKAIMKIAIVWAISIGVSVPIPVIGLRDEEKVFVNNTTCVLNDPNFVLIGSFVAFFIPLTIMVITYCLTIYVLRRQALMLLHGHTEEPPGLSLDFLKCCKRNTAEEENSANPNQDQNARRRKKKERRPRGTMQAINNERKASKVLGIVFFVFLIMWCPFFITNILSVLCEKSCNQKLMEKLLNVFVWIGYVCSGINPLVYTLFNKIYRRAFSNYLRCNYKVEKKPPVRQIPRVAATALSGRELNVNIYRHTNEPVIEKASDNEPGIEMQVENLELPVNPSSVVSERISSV
The experiment in a line: DRUGMATRIX: Serotonin (5-Hydroxytryptamine) 5-HT2C radioligand binding (ligand: [3H] Mesulergine). It is filed as cell membranes, CHO-K1, Membrane. The settings on record: cho-k1; Not Active = under 50% inhibition at 10 µM.
As to `Nn1nnc2ccccc21`, the IC50 entry is on record as “Not Active”.

As to `Clc1cc2c(cc1Cl)Oc1cc(Cl)c(Cl)cc1O2` [2,3,7,8-TETRACHLORODIBENZO-P-DIOXIN], the IC50 result is given as “Not Active”.

Regarding `CCCCCC[C@H]1C(=O)O[C@H](C)[C@H](NC(=O)c2cccc(NC=O)c2O)C(=O)O[C@@H](C)[C@@H]1OC(=O)CC(C)C` [ANTIMYCIN A], the IC50 result is reported as “Not Active”.

With `C[C@@H]1CC[C@H]2[C@@H](C)C(=O)O[C@@H]3O[C@@]4(C)CC[C@@H]1[C@]32OO4` [ARTEMISININ], the IC50 result is reported as “Not Active”.

As for `CC(C)(C)c1ccc(S(=O)(=O)/C=C/C#N)cc1` [BAY-11-7085], the IC50 entry was “Not Active”.

For `CCc1oc2ccccc2c1C(=O)c1cc(Br)c(O)c(Br)c1` [BENZBROMARONE], the IC50 result is “Not Active”.

Take `O=c1cc(-c2ccccc2)oc2ccc3ccccc3c12` [BETA-NAPHTHOFLAVONE]: the IC50 entry was “Not Active”.

Take `O=C(/C=C/c1ccc(O)c(O)c1)OCCc1ccccc1` [CAFFEIC ACID PHENETHYL ESTER]: the IC50 result is listed as “Not Active”.

Take `CC(C)(Oc1ccc(C2CC2(Cl)Cl)cc1)C(=O)O` (stereo not given) [CIPROFIBRATE]: the IC50 result was “Not Active”.

Take `OCCO` [ETHYLENE GLYCOL]: the IC50 entry is “Not Active”.

On to `CC(=O)OCC(CCn1cnc2cnc(N)nc21)COC(C)=O` [FAMCICLOVIR], for which the IC50 entry was “Not Active”.

Turning to `O=C(O)Cc1ccc(-c2ccccc2)cc1` [FELBINAC], the IC50 entry is recorded as “Not Active”.

As for `Cc1cn[nH]c1` [FOMEPIZOLE], the IC50 result was “Not Active”.

On to `C[C@H]([C@](O)(Cn1cncn1)c1ccc(F)cc1F)S(C)(=O)=O` [GENACONAZOLE], for which the IC50 entry is listed as “Not Active”.

With `COc1ccccc1OCC(O)CO` (stereo not given) [GUAIFENESIN], the IC50 result is recorded as “Not Active”.

For another assay, the target named is Carbonic anhydrase 2 (Homo sapiens, UniProt P00918). The experiment in a line: DRUGMATRIX: Carbonic Anhydrase II enzyme inhibition (substrate: 4-Nitrophenyl acetate (4-NPA)). It is filed as tissue-based, Erythrocyte. As to conditions: erythrocyte; Not Active = under 50% inhibition at 10 µM.
As for `Nn1nnc2ccccc21`, the IC50 entry is given as “Not Active”.

For `Clc1cc2c(cc1Cl)Oc1cc(Cl)c(Cl)cc1O2` [2,3,7,8-TETRACHLORODIBENZO-P-DIOXIN], the IC50 result is recorded as “Not Active”.

On to `CCCCCC[C@H]1C(=O)O[C@H](C)[C@H](NC(=O)c2cccc(NC=O)c2O)C(=O)O[C@@H](C)[C@@H]1OC(=O)CC(C)C` [ANTIMYCIN A], for which the IC50 entry was “Not Active”.

For the compound `C[C@@H]1CC[C@H]2[C@@H](C)C(=O)O[C@@H]3O[C@@]4(C)CC[C@@H]1[C@]32OO4` [ARTEMISININ], the IC50 result is “Not Active”.

As for `CC(C)(C)c1ccc(S(=O)(=O)/C=C/C#N)cc1` [BAY-11-7085], the IC50 entry is on record as “Not Active”.

On to `CCc1oc2ccccc2c1C(=O)c1cc(Br)c(O)c(Br)c1` [BENZBROMARONE], for which the IC50 entry is “Not Active”.

`O=c1cc(-c2ccccc2)oc2ccc3ccccc3c12` [BETA-NAPHTHOFLAVONE]: the IC50 entry is “Not Active”.

Consider `O=C(/C=C/c1ccc(O)c(O)c1)OCCc1ccccc1` [CAFFEIC ACID PHENETHYL ESTER], for which the IC50 result was “Not Active”.

Consider `CC(C)(Oc1ccc(C2CC2(Cl)Cl)cc1)C(=O)O` (stereo not given) [CIPROFIBRATE], for which the IC50 result is on record as “Not Active”.

Turning to `OCCO` [ETHYLENE GLYCOL], the IC50 result was “Not Active”.

For the compound `CC(=O)OCC(CCn1cnc2cnc(N)nc21)COC(C)=O` [FAMCICLOVIR], the IC50 result was “Not Active”.

In the case of `O=C(O)Cc1ccc(-c2ccccc2)cc1` [FELBINAC], the IC50 result is recorded as “Not Active”.

With `Cc1cn[nH]c1` [FOMEPIZOLE], the IC50 result is listed as “Not Active”.

Take `C[C@H]([C@](O)(Cn1cncn1)c1ccc(F)cc1F)S(C)(=O)=O` [GENACONAZOLE]: the IC50 entry is “Not Active”.

Take `COc1ccccc1OCC(O)CO` (stereo not given) [GUAIFENESIN]: the IC50 result is recorded as “Not Active”.
